From patent US20260078120A1, “SUBSTITUTED PYRIDOPYRIMIDINONES” (MIRATI THERAPEUTICS, INC., priority 2022, published 2026)

How the values were obtained:
[1] = system: SKBR3 (PI3Kα wild type) cells; experiment: CellTiter-Glo 2.0 luminescent cell viability assay, 72 hours, SKBR3 cells; format: cell-based; conditions: Homo sapiens, SK-BR-3, 72 h, SKBR3 (PI3Kα wild type) cells, CellTiter-Glo, approximately 72 hours; read-out: SKBR3 (WT) Viability IC50
Summary of the method: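 Viability measured via CTG luminescence following roughly 72 hours of compound exposure at 37° C. Dosing used a 10 um starting concentration diluted 1:4 over 10 points; percent-of-vehicle data fitted with a variable-slope four-parameter model for IC50.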

[2] = system: T47D (PI3Kα H1047R mutant) cells; experiment: CellTiter-Glo 2.0 luminescent cell viability assay, 72 hours, T47D cells; format: cell-based; conditions: Homo sapiens, T47D, 72 h, T47D (PI3Kα H1047R mutant) cells, CellTiter-Glo, approximately 72 hours; read-out: T47D (H1047R mutant) Viability IC50
Summary of the method: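 Cells seeded at 1000 per well overnight were dosed with a 10-concentration, 1:4 series starting at 10 µM and incubated ~72 h at 37° C. Viability was read by CellTiter-Glo 2.0 luminescence after 30 min at room temperature. IC50 came from four-parameter fits of percent vehicle control.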

Compound	IC50 [1] [nM]	IC50 [2] [nM]
Cc1cc([C@@H](C)Nc2ccccc2C(=O)O)c2nc(NCC3CC3(F)F)c(C#N)c(=O)n2c1 (stereo partly drawn) [Example 11-158, 2-(((1R)-1-(3-cyano-2-(((2,2-difluorocyclopropyl)methyl)amino)-7-methyl-4-oxo-4H-pyrido[1,2-a]pyrimidin-9-yl)ethyl)amino)benzoic acid]	> 10000	167
Cc1cc([C@@H](C)Nc2ccccc2C(=O)O)c2nc(NCC3(C(F)(F)F)CC3)c(C#N)c(=O)n2c1 [Example 11-159, (R)-2-((1-(3-cyano-7-methyl-4-oxo-2-(((1-(trifluoromethyl)cyclopropyl)methyl)amino)-4H-pyrido[1,2-a]pyrimidin-9-yl)ethyl)amino)benzoic acid]	> 10000	176
Cc1cc([C@@H](C)Nc2ccccc2C(=O)O)c2nc(N[C@H](C3CC3)C(F)(F)F)c(C#N)c(=O)n2c1 [Example 11-160, 2-(((R)-1-(3-cyano-2-(((R)-1-cyclopropyl-2,2,2-trifluoroethyl)amino)-7-methyl-4-oxo-4H-pyrido[1,2-a]pyrimidin-9-yl)ethyl)amino)benzoic acid]	> 10000	657
Cc1cc([C@@H](C)Nc2ccccc2C(=O)O)c2nc(N[C@@H](C3CC3)C(F)(F)F)c(C#N)c(=O)n2c1 [Example 11-161, 2-(((R)-1-(3-cyano-2-(((S)-1-cyclopropyl-2,2,2-trifluoroethyl)amino)-7-methyl-4-oxo-4H-pyrido[1,2-a]pyrimidin-9-yl)ethyl)amino)benzoic acid]	> 10000	1050
Cc1cc([C@@H](C)Nc2ccccc2C(=O)O)c2nc(N[C@@H](C)C3CC3)c(C#N)c(=O)n2c1 [Example 11-164, 2-(((R)-1-(3-cyano-2-(((S)-1-cyclopropylethyl)amino)-7-methyl-4-oxo-4H-pyrido[1,2-a]pyrimidin-9-yl)ethyl)amino)benzoic acid]	> 10000	228
Cc1cc([C@@H](C)Nc2ccccc2C(=O)O)c2nc(N[C@H](C)C3CC3)c(C#N)c(=O)n2c1 [Example 11-165, 2-(((R)-1-(3-cyano-2-(((R)-1-cyclopropylethyl)amino)-7-methyl-4-oxo-4H-pyrido[1,2-a]pyrimidin-9-yl)ethyl)amino)benzoic acid]	> 10000	485
Cc1cc([C@@H](C)Nc2ccccc2C(=O)O)c2nc(N[C@@H](C)C3CC3)c(C)c(=O)n2c1 [Example 11-166, 2-(((R)-1-(2-(((S)-1-cyclopropylethyl)amino)-3,7-dimethyl-4-oxo-4H-pyrido[1,2-a]pyrimidin-9-yl)ethyl)amino)benzoic acid]	> 10000	364
Cc1cc([C@@H](C)Nc2ccccc2C(=O)O)c2nc(N[C@H](C)C3CC3)c(C)c(=O)n2c1 [Example 11-167, 2-(((R)-1-(2-(((R)-1-cyclopropylethyl)amino)-3,7-dimethyl-4-oxo-4H-pyrido[1,2-a]pyrimidin-9-yl)ethyl)amino)benzoic acid]	> 10000	1180
C[C@@H](Nc1ccccc1C(=O)O)c1cc(C(F)F)cn2c(=O)c(C#N)c(N3CCC(F)(F)CC3)nc12 [Example 11-168, (R)-2-((1-(3-cyano-7-(difluoromethyl)-2-(4,4-difluoropiperidin-1-yl)-4-oxo-4H-pyrido[1,2-a]pyrimidin-9-yl)ethyl)amino)benzoic acid]	> 10000	241
C[C@H](Nc1ccccc1C(=O)O)c1cc(C(F)F)cn2c(=O)c(C#N)c(N3CCC(F)(F)CC3)nc12 [Example 11-169, (S)-2-((1-(3-cyano-7-(difluoromethyl)-2-(4,4-difluoropiperidin-1-yl)-4-oxo-4H-pyrido[1,2-a]pyrimidin-9-yl)ethyl)amino)benzoic acid]	> 10000	> 10000
CC(Nc1ccccc1C(=O)O)c1cc(C(F)F)cn2c(=O)c(C#N)c(N3CCC(F)(F)CC3)nc12 (centres unmarked) [Example 11-170, 2-((1-(3-cyano-7-(difluoromethyl)-2-(4,4-difluoropiperidin-1-yl)-4-oxo-4H-pyrido[1,2-a]pyrimidin-9-yl)ethyl)amino)benzoic acid]	> 10000	166
Cc1c(N2CCC(F)(F)CC2)nc2c([C@@H](C)Nc3ccccc3C(=O)O)cc(C(F)F)cn2c1=O [Example 11-171, (R)-2-((1-(7-(difluoromethyl)-2-(4,4-difluoropiperidin-1-yl)-3-methyl-4-oxo-4H-pyrido[1,2-a]pyrimidin-9-yl)ethyl)amino)benzoic acid]	> 10000	227
Cc1cc([C@@H](C)Nc2ccccc2C(=O)O)c2nc(N3CC4(CCN(c5ccc(C#N)cc5)CC4)C3)c(C#N)c(=O)n2c1 [Example 11-172, (R)-2-((1-(3-cyano-2-(7-(4-cyanophenyl)-2,7-diazaspiro[3.5]nonan-2-yl)-7-methyl-4-oxo-4H-pyrido[1,2-a]pyrimidin-9-yl)ethyl)amino)benzoic acid]	> 10000	210
Cc1cc([C@@H](C)Nc2ccccc2C(=O)O)c2nc(N3CCN(c4cn(C)nc4C(F)(F)F)CC3)c(C#N)c(=O)n2c1 [Example 11-173, (R)-2-((1-(3-cyano-7-methyl-2-(4-(1-methyl-3-(trifluoromethyl)-1H-pyrazol-4-yl)piperazin-1-yl)-4-oxo-4H-pyrido[1,2-a]pyrimidin-9-yl)ethyl)amino)benzoic acid]	> 10000	145
Cc1cc([C@@H](C)Nc2ccccc2C(=O)O)c2nc(N3C[C@H]4C[C@@H]3CN4c3ccc(C#N)cc3)c(C#N)c(=O)n2c1 [Example 11-174, 2-(((R)-1-(3-cyano-2-((1R,4R)-5-(4-cyanophenyl)-2,5-diazabicyclo[2.2.1]heptan-2-yl)-7-methyl-4-oxo-4H-pyrido[1,2-a]pyrimidin-9-yl)ethyl)amino)benzoic acid]	> 10000	900
Cc1cc([C@@H](C)Nc2ccccc2C(=O)O)c2nc(N3C[C@@H]4C[C@H]3CN4c3ccc(C#N)cc3)c(C#N)c(=O)n2c1 [Example 11-175, 2-(((R)-1-(3-cyano-2-((1S,4S)-5-(4-cyanophenyl)-2,5-diazabicyclo[2.2.1]heptan-2-yl)-7-methyl-4-oxo-4H-pyrido[1,2-a]pyrimidin-9-yl)ethyl)amino)benzoic acid]	> 10000	3000
Cc1cc([C@@H](C)Nc2ccccc2C(=O)O)c2nc(N3C[C@H]4C[C@@H]3CN4c3ccc(C#N)cc3)c(C)c(=O)n2c1 [Example 11-176, 2-(((R)-1-(2-((1R,4R)-5-(4-cyanophenyl)-2,5-diazabicyclo[2.2.1]heptan-2-yl)-3,7-dimethyl-4-oxo-4H-pyrido[1,2-a]pyrimidin-9-yl)ethyl)amino)benzoic acid]	> 10000	722
Cc1cc([C@@H](C)Nc2ccccc2C(=O)O)c2nc(N3C[C@@H]4C[C@H]3CN4c3ccc(C#N)cc3)c(C)c(=O)n2c1 [Example 11-177, 2-(((R)-1-(2-((1S,4S)-5-(4-cyanophenyl)-2,5-diazabicyclo[2.2.1]heptan-2-yl)-3,7-dimethyl-4-oxo-4H-pyrido[1,2-a]pyrimidin-9-yl)ethyl)amino)benzoic acid]	> 10000	1570
Cc1cc([C@@H](C)Nc2ccccc2C(=O)O)c2nc(N3C4CNCC3C4)c(C#N)c(=O)n2c1 [Example 11-178, 2-(((1R)-1-(2-(3,6-diazabicyclo[3.1.1]heptan-6-yl)-3-cyano-7-methyl-4-oxo-4H-pyrido[1,2-a]pyrimidin-9-yl)ethyl)amino)benzoic acid]	> 10000	≥ 10000
